Data taken from patent publication US20180022819A1, “COMPOSITIONS AND METHODS FOR COMBINATION THERAPY WITH PROSTATE-SPECIFIC MEMBRANE ANTIGEN BINDING PROTEINS” (APTEVO RESEARCH AND DEVELOPMENT LLC, priority 2015, published 2018).

Tests used:
22Rv1 cells [1] = assay: Flow cytometry: effect of prolonged enzalutamide treatment on PSMA expression level of 22Rv1 cells (Example 4); assay type: cell-based, human; details: 10 μM enzalutamide
Source text: Mean fluorescence intensity (MFI) of bound molecules on live cells is shown on the y-axis. Concentration (nM) of the anti-PSMA monoclonal antibody 107-1A4 labeled with FITC is shown on the x-axis.
22Rv1 cells (PSMA+ at low level) were obtained from ATCC (Manassas, Va.) and cultured according to the ATCC protocol in RPMI-1640 media plus 10% FBS. […] All four cultures were harvested, stained for PSMA with FITC-labeled anti-PSMA monoclonal antibody 107-1A4 (Acris), and PSMA expression assayed by standard flow cytometry procedures. 22Rv1 cells were harvested with trypsin, and placed into FACS buffer (PBS+0.5% BSA [Equitech]+2 mM EDTA [Life Technologies]) at 1×10e6 per ml. FITC-107-1A4 was prepared at 36 nM in FACS buffer, and serially diluted 1:3, before adding 50 μl to 2×10e5 22Rv1 cells which had been pelleted in a 96 well plate. After 30 minute incubation on ice, cells were washed 3 times in FACS buffer, resuspended in FACS buffer, and data acquired on a BD LSRII flow cytometer. The sample files were analyzed using FlowJo software; the median fluorescence intensity (MFI) of the live population of 22Rv1 cells in each well was calculated after gating on live cells (forward vs side scatter). Median fluorescence intensities were fit to a 4-parameter logistic curve and graphed as concentration vs. MFI using GraphPad PRISM® software.

22Rv1 cells [2] = assay: Chromium-51 release assay of redirected T-cell cytotoxicity against 22Rv1 cells (Example 5); assay type: cell-based, human; details: 22Rv1 cells resistant to enzalutamide, 10 μM enzalutamide pre-treatment
Description: FIG. 3 (top panel) is a graph showing the results of a chromium-51 release assay measuring the effectiveness of the anti-PSMA bispecific molecule TSC249 at inducing redirected T-cell cytotoxicity in 4 hours against enzalutamide-treated and untreated prostate cancer 22Rv1 cells. Percent specific lysis relative to a total lysis control is shown on the y-axis. Concentration (pM) of the anti-PSMA bispecific molecule TSC249 is shown on the x-axis.
To compare the sensitivity of enzalutamide-treated and untreated 22Rv1 prostate cancer cells to target-dependent T-cell cytotoxicity, a bispecific binding molecule targeting PSMA and CD3 was tested in a chromium (^51Cr) release assay using donor T-cells as effector cells. [See, e.g., US 2014/0161800 A1, which describes multispecific binding molecules that bind to prostate-specific membrane antigen (PSMA) and CD3.]
Cytotoxicity was assessed by a ^51Cr release assay. […]
Plates were incubated for 4 hours, spun at 225×g for 3 minutes, and 25 μL of supernatant was transferred from each well to the corresponding well of a 96-well LUMAPLATE® sample plate (Perkin Elmer). Sample plates were allowed to air dry in a chemical safety hood for 18 hours, and then radioactivity was read on a Topcount scintillation counter using a standard protocol. […]

LNCaP cells [3] = assay: Growth inhibition of LNCaP-GFP cells with primary human T-cells, 4 days, with combination index analysis (Example 6); assay type: cell-based; details: enzalutamide plus TSC249 over a wide range of concentrations, T-cells, 4 days
Description: Additional procedures are described in Example 6. Percentage of live cells relative to an untreated control is shown on the y-axis.
Combination indices can indicate additive effects (CI=1), synergism (CI<1), or antagonism (CI>1).
Overall fluorescent signal from GFP enabled the quantitation of living LNCaP target cells in isolation from T-cells. […] TSC249 was added to have final concentrations of 125, 62.5, 31.25, 15.6, 7.8, 3.9, or 1.95 pM, or none. T-cells from several donors were used in replicate experiments, added at a ratio of 45,000 T-cells to 15,000 LNCaP cells per well.
After 4 days culture at 37° C. in 5% CO2, media was aspirated from wells and […] of 0.4% NP-40 was added to each well. Fluorescent signal from GFP in LNCaP cells adherent in wells was detected by a Spectramax plate reader, reading from the bottom of the wells. […]
The combination index theorem developed by Chou and Talalay was used to determine the interaction between the two compounds in their anti-cancer activity (see Chou, Cancer Res. 2010 Jan. 15; 70(2):440-6; Chou, Pharmacol Rev. 2006 September; 58(3):621-81). For each plate, relative fluorescence units (RFU) of all wells were normalized to the RFU of the well containing cells only, i.e., the proportion of living LNCaP cells in each well was expressed in relation to untreated LNCaP cells. […] Mean values were calculated from three replicates. […]

LNCaP cells [4] = assay: Effect of enzalutamide on redirected T-cell cytotoxicity in LNCaP cells expressing GFP (Example 1); assay type: cell-based, human; details: enzalutamide alone, […] nM in 0.2% DMSO, no T-cells, 4 days
Description: A titration of the anti-PSMA bispecific molecule TSC249 (protein sequence of SEQ ID NO: 78 in Table 3) was added to all sets of LNCaP cells in the amounts shown on the x-axis. T-cells and DMSO were added to the first set of LNCaP cells (leftmost set of bars). […] No T-cells and DMSO were added to the third set of LNCaP cells (set of bars second from the right). […] LNCaP cell growth (number of live cells) was measured by overall fluorescence and expressed as a fraction of live cells relative to the cells untreated with TSC249 on the y-axis.
LNCaP cells expressing GFP were cultured with donor T-cells at a 3:1 ratio of T-cells to LNCaP target cells for 4 days. […] DMSO alone was added to other samples. A titration of the anti-PSMA bispecific molecule TSC249 (protein sequence of SEQ ID NO: 78 in Table 3) was added to the cell cultures. LNCaP cell growth (number of live cells) was monitored by overall fluorescence.

CNC(=O)c1ccc(N2C(=S)N(c3ccc(C#N)c(C(F)(F)F)c3)C(=O)C2(C)C)cc1F [enzalutamide]
MFI from binding of FITC-107-1A4 to the 22Rv1 cells (PSMA expression) (22Rv1 cells [1]; one week of incubation, vs cells cultured without enzalutamide): increase in the MFI
MFI from binding of FITC-107-1A4 to the 22Rv1 cells (PSMA expression) (22Rv1 cells [1]; three weeks of incubation): no additional increases
MFI from binding of FITC-107-1A4 to the 22Rv1 cells (PSMA expression) (22Rv1 cells [1]; two weeks of incubation): additional increase in the MFI value
sensitivity of target cells to T-cell mediated lysis (22Rv1 cells [2]): increasing the sensitivity
live cell signal when combined with the other drug (LNCaP cells [3]): further decrease in live cell signal
reduction of live cells (LNCaP cells [4]): ~20%
